Measured values reported in US20130190275A1, “COMBINED THERAPIES OF ANTIPSYCHOTIC DRUGS AND TETRACYCLINES IN THE TREATMENT OF PSYCHIATRIC DISORDERS” (MOR RESEARCH APPLICATIONS LTD., priority 2006, published 2013).
Counter-ions that a name gives are not always drawn.

Tests used:
Assay type in all cases: in vivo, rat
MK801 treated rats [1] = experiment: Habituation of the Acoustic Startle Response (ASR), MK801 animal model
Protocol: (§1) Acoustic Startle Response (ASR) and Pre-Pulse Inhibition (PPI): Both experimental paradigms were performed in a room that was adjacent to the laboratory facilities and the animal stall and that was not used for other experiments. The animals were tested in squad of two with startle chambers counterbalanced across the different experimental groups. Startle response and prepulse inhibition were measured using two ventilated startle chambers (SR-LAB system, San Diego Instruments, San Diego, Calif.). Each chamber consisted of a Plexiglas cylinder resting on a platform inside a sound-attenuated, ventilated chamber. A high-frequency loudspeaker inside the chamber produced both a continuous broadband background noise of 70 dB and the various acoustic stimuli. Movement inside the tube was detected by a piezoelectric accelerometer below the frame. The amplitude of the whole body startle to an acoustic pulse was defined as the average of 100 one-msec accelerometer readings collected from pulse onset. These signals were then digitized and stored by a computer. Sound levels within each test chamber were measured routinely using a sound level meter (Radio Shack) to ensure consistent presentation. The SR-LAB calibration unit was used routinely to ensure consistent stabilimeter sensitivity between test chambers and over time (Swerdlow and Geyer, 1998, Schizophrenia Bulletin, 24(2), 285-301).
(§2) Fifteen minutes before the behavioral procedures conducted at the fourth day, the subject was injected i.p. with an 0.1 mg/kg dose of MK801 or saline, for a total volume of 1 ml per kg of body weight. Next, the subjects passed the three behavioral procedures, described in the following paragraphs.
(§3) ASR and PPI were measured using two startle chambers, with each chamber consisting of a Plexiglas cylinder resting on a platform inside a sound-attenuated, ventilated chamber (see also materials section). The animals were tested in pairs with startle chambers counterbalanced across the different experimental groups.
The ASR test measured the ability of the animal to habituate to repetitive loud pulses of noise. […] Movement inside the tube was detected by a piezoelectric accelerometer below the frame. The amplitude of the whole body startle to an acoustic pulse was defined as the average of 100 one-msec accelerometer readings collected from pulse onset. […]
Acoustic Startle Response (ASR): The decrease in ASR in the groups was calculated as the percent of amplitude decrease between the mean of the first five amplitude values and the mean of the last 25 amplitude values.
Percent habituation=100×[(average startle amplitude in Block 1)−(average startle amplitude in Block 5)/(average startle amplitude in Block 1)]. Results were analyzed by two-way ANOVA a between-subject measure of ‘group’ (treatment group).

MK801 treated rats [2] = experiment: Pre-Pulse Inhibition (PPI) paradigm, MK801 animal model
Protocol: as §1, §2, §3
PPI of the startle response was used as a measure of sensorimotor gating, with the startle chambers used to assess the ability of prepulse stimuli to block the startle response. […]
Pre-Pulse Inhibition (PPI): Startle magnitude is expressed in all the procedures as arbitrary units. Percent PPI (% PPI) was calculated as the mean startle magnitude to stimulus-alone minus the mean startle magnitude to prepulse-stimulus trials, all divided by the mean stimulus-alone trials, and multiplied by 100. The overall mean % PPI was calculated for the four prepulse intensities (72, […], 80, 84 dB). Results were analyzed by two-way ANOVA with a between-subject measure of ‘group’ (difference the treatment groups) and ‘prepulse intensity’ (72, 76, 80, 84 dB).

MK801 treated rats [3] = experiment: Morris Water Maze (MWM) task, MK801 animal model of schizophrenia; conditions: MK801 alone vs saline group, p<0.001
Protocol: Morris Water Maze (MWM): The MWM consisted of a water pool (diameter=1.8 m; depth=0.6 m) containing water at 26±1° C. A hidden platform was located 1.5 cm below the water surface. Within the testing room, only distal visuo-spatial cues were available to the rats for location of the submerged platform. A video camera was placed above the center of the pool for tracking the rat, and a video tracking system (Noldus Information Technology b.v., Wageninpen, The Netherlands) with online digital output, directly fed data into a computer and analyzed. Data were analyzed by using an Etho-Vision automated tracking system (Noldus Information Technology).
as §2
The MWM, a hippocampal-dependent visuo-spatial learning task, was used to assess the subjects' spatial learning/memory. The ability of an animal to locate a hidden platform submerged under water by using extra-maze cues from the test environment was examined. The rats were trained in a pool 1.8 m in diameter and 0.6 m high, containing water at 26±1° C. A 10 cm square transparent platform was hidden in a constant position in the pool submerged 1 cm below the water level. Within the testing room only distal visuo-spatial cues were available to the rats for location of the submerged platform.
Rats were given four trials per day, to find the hidden platform (acquisition phase). The escape latency, i.e., the time required by the rat to find and climb onto the platform, was recorded for up to 120 sec. Each rat was allowed to remain on the platform for 30 sec, and was then removed to its home cage.
Morris Water Maze (MWM): Escape latency, the time between placing the rat in the pool until it located the platform, was measured during behavioral testing. The escape latency was analyzed by means of […] repeated measures analysis of variance (ANOVA) with a between-subjects measure of ‘group’ (treatment group) and a within-subjects measure of ‘trail’ (effects amongst groups in the four different trials).
The MWM test was then performed (see FIG. 1 for results). A significant main effect of ‘group’, ‘trail’ and a significant ‘group’×‘trails’ interaction was found in the repeated measured ANOVA for the MWM task [F(5,35)=9.699, p<0.001; F(3,33)=31.551, p<0.001; F(15,91)=1.824, p<0.05; respectively].

[4] = drug+MK801 0.1 mg/kg i.p., minocycline 35 mg/kg x 3 days pretreatment, haloperidol 0.4 mg/kg i.p.

| SMILES | percent habituation of the startle response (% habituation) (MK801 treated rats [1]; [4]) | percent of PPI (% PPI) (MK801 treated rats [2]; [4]) | escape latency (MK801 treated rats [3]) | percent habituation of the startle response (% habituation) (MK801 treated rats [1]; MK801 alone vs saline treated rats) | percent of PPI (% PPI) (MK801 treated rats [2]; MK801 alone vs saline treatment group) |
| --- | --- | --- | --- | --- | --- |
| O=C(CCCN1CCC(O)(c2ccc(Cl)cc2)CC1)c1ccc(F)cc1 [haloperidol] | not able to prevent the deficits induced by MK801 | lack of significant effects | – | – | – |
| C[C@]12N[C@H](Cc3ccccc31)c1ccccc12 [MK801, Dizocilpine maleate] | – | – | longer escape latencies | induced a significant deficit in the habituation of ASR | induced a significant deficit in the PPI |
